{"source": "patent US20240424001A1", "about": "“LOCAL […] OF GROWTH AND REPAIR PROMOTING COMPOUNDS FOR TREATING, REDUCING AND/OR PREVENTING STRESS URINARY IN[…] FECAL INCONTINENCE” (STATERA PHARMA INC., priority 2021, published 2024)", "origin": "cited, not measured here"}
{"conditions": "approximate; testosterone = 100%; varies with species studied and assay methodology (ref. 14)", "units": {"relative potency of androgens": "%"}}
{"smiles": "C[C@]12CCC(=O)C=C1CC[C@@H]1[C@@H]2CC[C@]2(C)C(=O)CC[C@@H]12", "note": "[androstenedione]", "relative potency of androgens": "~10"}
{"smiles": "C[C@]12CC[C@H](O)CC1=CC[C@@H]1[C@@H]2CC[C@]2(C)C(=O)CC[C@@H]12", "note": "[dehydroepiandrosterone]", "relative potency of androgens": "~5"}
{"smiles": "C[C@]12CC[C@H]3[C@@H](CCC4=CC(=O)CC[C@@]43C)[C@@H]1CC[C@@H]2O", "note": "[testosterone]", "relative potency of androgens": "~100"}
